Results taken from ChEMBL document CHEMBL1150095, “Antitumor activity and stereochemistry of acetylenic alcohols from the sponge Cribrochalina vasculum” (1995).
Activity calls are given as the source filed them. The calls are words filed in the database; no cut-off is given here.

Tests used:
IGROV-1 = test: Antitumor activity against human IGROV1 cells; format: functional
NCI-H522 = test: Antitumor activity against human NCI-H522 cells; format: functional

Structure (SMILES): C#C[C@@H](O)/C=C/CCCCCCCCC/C=C\CCCCC(C)C
- Activity (IGROV-1): Active
- Activity (NCI-H522): Active
